Experimental data taken from EPA's ToxValDB 9.5.

Tests used:
[1] = tested on: Mus musculus; details: oral
[2] = tested on: Rattus norvegicus; details: oral, gavage
[3] = developmental, duration: 20 days, gavage, F, ICR, Developmental: Decreases in pup body weight / delays in eye opening, vaginal opening, and first estrous / decreases in ovarian follicles…
[4] = developmental, duration: 15 days, F, Body Weight: 12% decrease in maternal body weight + Developmental: 12-13% decrease in fetal body weights
[5] = developmental, duration: 15 days, F, Body Weight: 31% decrease in maternal body weight gain + Developmental: Decreases in fetal body weight (9%) and delays in hindlimb …
[6] = reproduction developmental, duration: 70 days, Sprague-Dawley, Body Weight: Medullary/papillary tubular and ductal hyperplasia in P0 and F1
[7] = subchronic, duration: 90 days, M, Sprague-Dawley, Hematological: Decreased hemoglobin (4.9%) and hematocrit (5.2%)
[8] = subchronic, duration: 90 days, Sprague-Dawley, Gastrointestinal: Necrosis of individual squamous cells in forestomach and hyperplasia and hyperkeratosis of limiting ridge + Renal: …
[9] = developmental, duration: 13 days, gavage, F, CD1, Developmental: 12.5% decrease in birth weight and delayed eye opening at ?350 mg/kg/day / increased pup mortality (PND 0-3) and decreased …
[10] = developmental, duration: 13 days, gavage, F, CD1, Developmental: Increase in stillborn pups and 12.5% decrease in birth weight
[11] = chronic, duration: 93 days, F, Endocrine: Thyroid follicular epithelial hypertrophy
[12] = chronic, duration: 93 days, M/F, Hematological: Decreased RBC, hemoglobin, and hematocrit / increased reticulocytes / erythroid hypertrophy in bone marrow and …
[13] = chronic, duration: 93 days, M/F, Respiratory: Degeneration/atrophy of nasal olfactory epithelium at ?100 mg/kg/day and respiratory metaplasia at 500 mg/kg/day
[14] = chronic, duration: 93 days, M, Body Weight: 19% decrease in body weight gain
[15] = developmental, duration: 20 days, F, Body Weight: Decreased maternal weight gain (19%) + Developmental: Decreased fetal weight (10%)
[16] = developmental, duration: 126 days, M/F, Developmental: Decreased pup body weight (17-18%) during lactation period
[17] = reproduction developmental, duration: 126 days, M, Body Weight: Decreased weight gain (12%) / decreased maternal weight gain during GDs 0-7 and increased maternal weight gain during …
[18] = subchronic, duration: 44 days, F, Immunotoxicological: Thymic atrophy in 3/9 females
[19] = subchronic, duration: 44 days, M, Hematological: Decreased hemoglobin levels / increased reticulocytes at 315 mg/kg/day
[20] = subchronic, duration: 90 days, M/F, Sprague-Dawley, Hematological: Slight decreases in RBC, hemoglobin, and hematocrit and increases in reticulocytes

O=S(=O)(O)C(F)(F)C(F)(F)C(F)(F)C(F)(F)F [Perfluorobutanesulfonic acid]
NOAEL ([1]; developmental, duration: 20 days, gavage, F, ICR): 500 mg/kg-day
LOAEL [1, 3]: 200 mg/kg-day
NOAEL [1, 3]: 50 mg/kg-day
NOAEL ([1]; subchronic, duration: 6 weeks, diet, M, Hepatic: Decreased plasma triglyceride levels): 30 mg/kg-day
LOAEL [2, 4]: 2000 mg/kg-day
NOAEL [2, 4]: 1000 mg/kg-day
LOAEL [2, 5]: 1000 mg/kg-day
NOAEL [2, 5]: 300 mg/kg-day
NOAEL ([2]; reproduction developmental, duration: 70 days, Sprague-Dawley, Body Weight: Increased liver weight in males at ?300 mg/kg/day): 1000 mg/kg-day
LOAEL [2, 6]: 300 mg/kg-day
NOAEL [2, 6]: 100 mg/kg-day
NOAEL ([2]; short-term, duration: 28 days, Sprague-Dawley, Hepatic: Increased absolute and relative liver weight at 900 mg/kg/day + Immunotoxicological: No histological alterations + Neurological: No…): 900 mg/kg-day
LOAEL [2, 7]: 200 mg/kg-day
NOAEL [2, 7]: 60 mg/kg-day
NOAEL ([2]; subchronic, duration: 90 days, Sprague-Dawley): 600 mg/kg-day
LOAEL [2, 8]: 600 mg/kg-day
NOAEL [2, 8]: 200 mg/kg-day

O=C(O)C(F)(F)C(F)(F)C(F)(F)C(F)(F)C(F)(F)F [Perfluorohexanoic acid]
LOAEL [1, 9]: 350 mg/kg-day
NOAEL [1, 9]: 100 mg/kg-day
LOAEL [1, 10]: 175 mg/kg-day
NOAEL [1, 10]: 35 mg/kg-day
LOAEL ([2]; acute, duration: 1 days, F, Sprague-Dawley, Death: 1/4 died at […] / 3/3 died at 5,000 mg/kg/day): 1750 mg/kg-day
LOAEL ([2]; acute, duration: 1 days, F, Sprague-Dawley, Neurological: Abnormal gait, salivation, ataxia, lethargy): 175 mg/kg-day
LOAEL ([2]; chronic, duration: 104 weeks, F, Sprague-Dawley, Death: 36, 43, 33, and 22% survival rate in females at 0, 5, 30, and 200 mg/kg/day, respectivel): 200 mg/kg-day
LOAEL ([2]; chronic, duration: 104 weeks, F, Sprague-Dawley, Hematological: 8.1% reduction in mean RBC count and 5.2% reduction in hemoglobin at 51 weeks / 23.6 and 53.6% increase in reticulocyte …): 200 mg/kg-day
NOAEL ([2]; chronic, duration: 104 weeks, M, Sprague-Dawley, Hematological: 8.1% reduction in mean RBC count and 5.2% reduction in hemoglobin at 51 weeks / 23.6 and 53.6% increase in reticulocyte …): 100 mg/kg-day
LOAEL [2, 11]: 500 mg/kg-day
NOAEL [2, 11]: 100 mg/kg-day
LOAEL [2, 12]: 500 mg/kg-day
NOAEL [2, 12]: 100 mg/kg-day
NOAEL ([2]; chronic, duration: 93 days, M/F, Hepatic: Hepatocellular hypertrophy in males at ?100 mg/kg/day and females at 500 mg/kg/day): 500 mg/kg-day
LOAEL [2, 13]: 100 mg/kg-day
NOAEL [2, 13]: 20 mg/kg-day
LOAEL [2, 14]: 500 mg/kg-day
NOAEL [2, 14]: 200 mg/kg-day
LOAEL ([2]; chronic, duration: 126 days, F): 500 mg/kg-day
NOAEL ([2]; chronic, duration: 126 days, F): 100 mg/kg-day
NOAEL ([2]; chronic, duration: 126 days, M/F): 500 mg/kg-day
LOAEL [2, 15]: 500 mg/kg-day
NOAEL [2, 15]: 100 mg/kg-day
LOAEL [2, 16]: 500 mg/kg-day
NOAEL [2, 16]: 100 mg/kg-day
NOAEL ([2]; reproduction developmental, duration: 44 days, M/F, Gastrointestinal: Stomach erosions/ulceration in dying or sacrificed in extremis rats administered 450 mg/kg/day for 4 days + Hepatic: …): 315 mg/kg-day
LOAEL [2, 17]: 100 mg/kg-day
NOAEL [2, 17]: 20 mg/kg-day
NOAEL ([2]; subchronic, duration: 44 days, F): 315 mg/kg-day
LOAEL [2, 18]: 315 mg/kg-day
NOAEL [2, 18]: 150 mg/kg-day
NOAEL ([2]; subchronic, duration: 44 days, M): 315 mg/kg-day
LOAEL ([2]; subchronic, duration: 44 days, M/F, Death: 8/30 deaths (includes rats sacrificed in extremis) during first 4 days of exposure): 450 mg/kg-day
LOAEL [2, 19]: 150 mg/kg-day
NOAEL [2, 19]: 50 mg/kg-day
LOAEL [2, 20]: 200 mg/kg-day
NOAEL [2, 20]: 50 mg/kg-day
NOAEL ([2]; subchronic, duration: 90 days, M/F, Sprague-Dawley, Hepatic: Centrilobular hepatocellular hypertrophy at 200 mg/kg/day): 200 mg/kg-day
